Data as given in patent US7291641B2, “Derivatives of heterocycles with 5 members, their preparation and their use as medicaments” (Societe de Conseils de Recherches et d'Applications …, priority 1999, dated 2007).
Where a name gives a salt, the structure may show the parent alone.

SMILES	melting point [°C]
CCCCCCC(N)c1nc(-c2ccc(-c3ccccc3)cc2)c[nH]1 (racemic) (as salt: hydrochloride) [Example 188, (R,S)-1-(4-[1,1′-biphenyl]-4-yl-1H-imidazol-2-yl)-heptanamine]	182 to 184
CCCCCCN[C@@H](Cc1c[nH]c2ccccc12)c1nc(-c2ccccc2)c[nH]1 (as salt: hydrochloride) [Example 53, N-[(1S)-2-(1H-indol-3-yl)-1-(4-phenyl-1H-imidazol-2-yl)ethyl]-1-hexanamine]	132 to 134
CCCCOC(=O)N[C@@H](C)c1nc(-c2ccc(-c3ccccc3)cc2)c[nH]1 [Example 241, 4-(2-{(1S)-1-[(butoxycarbonyl)amino]ethyl}-1H-imidazol-4-yl)-1,1′-biphenyl]	118 to 122
c1ccc(OCCN[C@H](Cc2c[nH]c3ccccc23)c2nc(-c3ccccc3)c[nH]2)cc1 [Example 108, (1R)-2-(1H-indol-3-yl)-N-(2-phenoxyethyl)-1-(4-phenyl-1H-imidazol-2-yl)ethanamine]	94 to 96
Fc1ccc(-c2c[nH]c(C(Cc3c[nH]c4ccc(F)cc34)NC3CCC3)n2)cc1 (racemic) (as salt: hydrochloride) [Example 256, (R,S)-N-{2-(5-fluoro-1H-indol-3-yl)-1-[4-(4-fluorophenyl)-1H-imidazol-2-yl]ethyl}cyclobutanamine]	180 to 190
CCCCCCOC(=O)NCCc1nc(-c2ccc(N3CCCC3)cc2)c[nH]1 [Example 384, hexyl 2-[4-(4-pyrrolidin-1-ylphenyl)-1H-imidazol-2-yl]ethylcarbamate]	110 to 114
N[C@H](CC1CCCCC1)c1nc(-c2ccc(F)cc2)c[nH]1 (as salt: hydrochloride) [Example 308, (1R)-2-cyclohexyl-1-[4-(4-fluorophenyl)-1H-imidazol-2-yl]ethanamine]	148 to 149
CCCCOC(=O)NCCc1nc(-c2ccc(N3CCCC3)cc2)c[nH]1 [Example 313, butyl 2-[4-(4-pyrrolidin-1-ylphenyl)-1H-imidazol-2-yl]ethylcarbamate]	125
CCN(CC)c1ccc(-c2c[nH]c([C@@H](NCC3CCCCC3)C3CCCCC3)n2)cc1 (as salt: hydrochloride) [Example 290, 4-(2-{(S)-cyclohexyl[(cyclohexylmethyl)amino]methyl}-1H-imidazol-4-yl)-N,N-diethylaniline]	204 to 206
CCCCOC(=O)NCCc1nc(-c2ccc(-c3ccccc3)cc2)c[nH]1 [Example 31, butyl 2-(4-[1,1′-biphenyl]-4-yl-1H-imidazol-2-yl)ethylcarbamate]	136.7
CC(C)(C)OC(=O)N[C@H](CCc1ccccc1)c1nc(-c2ccccc2)c[nH]1 [Example 129, tert-butyl (1R)-3-phenyl-1-(4-phenyl-1H-imidazol-2-yl)propylcarbamate]	72 to 74
NCCCc1nc(-c2ccc(F)cc2)c[nH]1 (as salt: hydrochloride) [Example 343, 3-[4-(4-fluorophenyl)-1H-imidazol-2-yl]propan-1-amine]	245 to 246
CCCCOC(=O)NCCc1nc(-c2ccc(-c3cc(F)ccc3F)cc2)c[nH]1 [Example 460, butyl 2-[4-(2′,5′-difluoro-1,1′-biphenyl-4-yl)-1H-imidazol-2-yl]ethylcarbamate]	109.5
CCCCCCOC(=O)NCCc1nc(-c2cc(C(C)(C)C)c(O)c(C(C)(C)C)c2)c[nH]1 [Example 386, hexyl 2-[4-(3,5-ditert-butyl-4-hydroxyphenyl)-1H-imidazol-2-yl]ethylcarbamate]	197.4
CCCCNC(=O)NCCc1nc(-c2ccc(-c3ccccc3)cc2)c[nH]1 [Example 34]	178
CCCCCCC(NCc1ccc(OC)cc1)c1nc(-c2ccccc2)c[nH]1 (racemic) [Example 227, (R,S)-N-(4-methoxybenzyl)-1-(4-phenyl-1H-imidazol-2-yl)-1-heptanamine]	126 to 128
c1ccc(CNCc2nc(-c3ccccc3)cn2Cc2ccccc2)cc1 [Example 110, N-benzyl(1-benzyl-4-phenyl-1H-imidazol-2-yl)methanamine]	60 to 62
CCCCCCC(NCC(C)C)c1nc(-c2ccccc2)c[nH]1 (racemic) (as salt: acetate) [Example 234, (R,S)-N-isobutyl-1-(4-phenyl-1H-imidazol-2-yl)-1-heptanamine]	70 to 72
CCCCCCC(N)c1nc(-c2cc(C(C)(C)C)c(O)c(C(C)(C)C)c2)c[nH]1 (racemic) (as salt: hydrochloride) [Example 210, (R,S)-4-[2-(1-aminoheptyl)-1H-imidazol-4-yl]-2,6-di(tert-butyl)-phenol]	204 to 206
c1ccc(CNCc2nc(-c3ccccc3)c(-c3ccccc3)[nH]2)cc1 [Example 163, N-benzyl(4,5-diphenyl-1H-imidazol-2-yl)methanamine]	160 to 162
CN(CC#N)Cc1nc(-c2cc(C(C)(C)C)c(O)c(C(C)(C)C)c2)cs1 [Example 3, 2-[({4-[3,5-di(tert-butyl)-4-hydroxyphenyl]-1,3-thiazol-2-yl}methyl)(methyl)amino]acetonitrile]	150 to 156

SMILES	melting point [°C]
c1ccc(-c2c[nH]c([C@@H](Cc3c[nH]c4ccccc34)Nc3ncccn3)n2)cc1 [Example 44, N-[(1R)-2-(1H-indol-3-yl)-1-(4-phenyl-1H-imidazol-2-yl)ethyl]-2-pyrimidinamine]	138 to 140
CCCCC(NC(=O)OC(C)(C)C)c1nc(-c2ccccc2)c[nH]1 (racemic) [Example 174, tert-butyl (R,S)-1-(4-phenyl-1H-imidazol-2-yl)pentylcarbamate]	126
Fc1ccc(-c2c[nH]c([C@@H](NC3CCCCCC3)C3CCCCC3)n2)cc1 [Example 301, N-{(S)-cyclohexyl[4-(4-fluorophenyl)-1H-imidazol-2-yl]methyl}cycloheptanamine]	140 to 142
NCc1nc(-c2ccccc2)c[nH]1 (as salt: hydrochloride) [Example 51, (4-phenyl-1H-imidazol-2-yl)methanamine]	228 to 230
Fc1ccc(-c2c[nH]c([C@@H](NCC3CC3)C3CCCCC3)n2)cc1 (as salt: hydrochloride) [Example 273, (S)-cyclohexyl-N-(cyclopropylmethyl)[4-(4-fluorophenyl)-1H-imidazol-2-yl]-methanamine]	221.4
CCC[C@@H](N)c1nc(-c2ccc(-c3ccccc3)cc2)c[nH]1 (as salt: hydrochloride) [Example 209, (1R)-1-(4-[1,1′-biphenyl]-4-yl-1H-imidazol-2-yl)-1-butanamine]	155.4
Cn1cc(-c2ccccc2)nc1[C@H](N)Cc1c[nH]c2ccccc12 (as salt: hydrochloride) [Example 151, (1R)-2-(1H-indol-3-yl)-1-(1-methyl-4-phenyl-1H-imidazol-2-yl)ethanamine]	206 to 210
O=C(NCCc1nc(-c2ccc(-c3ccccc3)cc2)c[nH]1)OCCCC(F)(F)F [Example 345, 4,4,4-trifluorobutyl 2-[4-(1,1′-biphenyl-4-yl)-1H-imidazol-2-yl]ethylcarbamate]	157.3
CCCCOC(=O)NCCc1nc(-c2ccc(-c3ccccc3)cc2)c(C)[nH]1 [Example 393, butyl 2-[4-(1,1′-biphenyl-4-yl)-5-methyl-1H-imidazol-2-yl]ethylcarbamate]	143 to 144
O=C(NCCc1nc(-c2ccc(F)cc2)c[nH]1)OCC1CCC1 [Example 286, cyclobutylmethyl 2-[4-(4-fluorophenyl)-1H-imidazol-2-yl]ethylcarbamate]	149 to 150
O=C(NCCc1nc(-c2ccc(N3CCCC3)cc2)c[nH]1)OCC1CCCCC1 [Example 326, cyclohexylmethyl 2-[4-(4-pyrrolidin-1-ylphenyl)-1H-imidazol-2-yl]ethylcarbamate]	128.5
CCCCS(=O)(=O)NCCc1nc(-c2ccc(-c3ccccc3)cc2)c[nH]1 [Example 33, N-[2-(4-[1,1′-biphenyl]-4-yl-1H-imidazol-2-yl)ethyl]-1-butanesulphonamide]	168.5
CC(C)(N)c1nc(-c2ccccc2)c[nH]1 (as salt: hydrochloride)	200 to 204
CC(C)(C)c1ccc(-c2c[nH]c(CCNC(=O)OC3CCCCC3)n2)cc1 [Example 342, cyclohexyl 2-[4-(4-tert-butylphenyl)-1H-imidazol-2-yl]ethylcarbamate]	127 to 130
CC[C@H](NCc1ccccc1)c1nc(-c2ccc(-c3ccccc3)cc2)c[nH]1 [Example 198, (1S)-N-benzyl-1-(4-[1,1′-biphenyl]4-yl-1H-imidazol-2-yl)-1-propanamine]	220 to 222
CCCCOC(=O)NCCc1nc(-c2cc(C(C)(C)C)c(O)c(C(C)(C)C)c2)c[nH]1 [Example 330, butyl 2-[4-(3,5-ditert-butyl-4-hydroxyphenyl)-1H-imidazol-2-yl]ethylcarbamate]	180.9
CC(C)(C)c1cn(Cc2ccccc2)c([C@@H](Cc2c[nH]c3ccccc23)NCc2ccccc2)n1 [Example 39, (1R)-N-benzyl-1-(1-benzyl-4-tert-butyl-1H-imidazol-2-yl)-2-(1H-indol-3-yl)ethanamine]	60 to 62
CCC[C@@H](NCc1ccccc1)c1nc(-c2ccc(-c3ccccc3)cc2)c[nH]1 [Example 213, (1R)-N-benzyl-1-(4-[1,1′-biphenyl]-4-yl-1H-imidazol-2-yl)-1-butanamine]	78.6
c1ccc(CN(Cc2ccccc2)Cc2nc(-c3ccc(-c4ccccc4)cc3)c[nH]2)cc1 [Example 144, N,N-dibenzyl(4-[1,1′-biphenyl]4-yl-1H-imidazol-2-yl)methanamine]	70 to 74
N[C@H](c1nc(-c2cccc(F)c2)c[nH]1)C1CCCCC1 (as salt: hydrochloride) [Example 311, (S)-1-cyclohexyl-1-[4-(3-fluorophenyl)-1H-imidazol-2-yl]methanamine]	238 to 241
